Results: patent US9902702B2, “Spirocycloheptanes as inhibitors of rock” (BRISTOL-MYERS SQUIBB COMPANY, priority 2014, dated 2018)
Where a name gives a salt, the structure may show the parent alone.

Biological target: ROCK2 (Homo sapiens, UniProt O75116)
Experiment: ROCK assay: phosphorylation of FITC peptide substrate, LABCHIP 3000 mobility shift
Type: biochemical
Settings: 5 μM ATP, 1.5 μM peptide substrate; read-out: ROCK2 Activity (ROCK IC50 range)
In short: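 IC50 values come from curve-fitting percent kinase inhibition across a compound dilution series. The reaction is started with Rho kinase variant in HEPES pH 7.5 buffer with MgCl2, Brij-35 and DTT, with 5 μM ATP, 1.5 μM FITC-labelled peptide and under 2% DMSO. After EDTA quench, product and substrate are separated by microfluidic mobility shift.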

Chain of ROCK2 (O75116 whole entry, species assumed): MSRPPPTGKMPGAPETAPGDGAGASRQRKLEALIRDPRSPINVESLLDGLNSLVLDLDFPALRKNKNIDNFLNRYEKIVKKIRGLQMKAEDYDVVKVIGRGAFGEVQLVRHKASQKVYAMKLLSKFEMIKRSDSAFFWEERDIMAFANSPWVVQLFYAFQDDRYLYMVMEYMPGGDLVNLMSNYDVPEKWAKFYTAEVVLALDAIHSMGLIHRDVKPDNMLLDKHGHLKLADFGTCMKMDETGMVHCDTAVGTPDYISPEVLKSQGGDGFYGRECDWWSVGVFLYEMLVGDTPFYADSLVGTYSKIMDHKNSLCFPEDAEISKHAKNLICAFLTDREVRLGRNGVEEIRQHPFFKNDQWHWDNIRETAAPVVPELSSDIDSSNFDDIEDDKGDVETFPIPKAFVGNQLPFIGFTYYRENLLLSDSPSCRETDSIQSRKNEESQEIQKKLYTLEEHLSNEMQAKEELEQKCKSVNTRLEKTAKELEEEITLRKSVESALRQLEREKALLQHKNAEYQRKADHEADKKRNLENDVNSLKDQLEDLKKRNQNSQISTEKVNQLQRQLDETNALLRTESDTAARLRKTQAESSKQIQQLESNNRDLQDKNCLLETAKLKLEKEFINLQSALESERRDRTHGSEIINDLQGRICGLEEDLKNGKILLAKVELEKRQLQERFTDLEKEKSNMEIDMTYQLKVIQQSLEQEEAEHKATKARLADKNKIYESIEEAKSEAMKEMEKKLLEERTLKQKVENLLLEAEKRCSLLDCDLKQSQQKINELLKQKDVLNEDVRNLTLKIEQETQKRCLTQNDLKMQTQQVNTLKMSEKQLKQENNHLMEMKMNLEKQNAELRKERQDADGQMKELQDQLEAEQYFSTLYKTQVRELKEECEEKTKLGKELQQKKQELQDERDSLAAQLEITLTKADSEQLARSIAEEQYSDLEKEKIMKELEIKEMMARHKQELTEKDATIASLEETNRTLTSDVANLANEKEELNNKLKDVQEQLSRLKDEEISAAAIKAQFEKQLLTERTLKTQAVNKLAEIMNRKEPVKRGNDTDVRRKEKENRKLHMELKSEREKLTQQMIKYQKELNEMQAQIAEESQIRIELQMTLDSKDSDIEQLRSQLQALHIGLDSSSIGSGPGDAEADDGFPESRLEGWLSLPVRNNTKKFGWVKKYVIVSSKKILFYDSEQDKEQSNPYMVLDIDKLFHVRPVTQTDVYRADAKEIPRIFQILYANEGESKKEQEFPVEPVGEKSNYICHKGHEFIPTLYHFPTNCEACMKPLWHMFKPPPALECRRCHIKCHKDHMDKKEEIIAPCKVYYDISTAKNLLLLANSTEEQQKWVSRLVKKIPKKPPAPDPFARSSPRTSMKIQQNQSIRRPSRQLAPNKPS

| SMILES | IC50 [nM] |
| --- | --- |
| [H][C@]1(c2n[nH]c(=O)c3ccccc32)C[C@]2(C[C@@H](NC(=O)c3nc(C(C)C)n4ccccc34)C2)C1 (stereo partly drawn) [Example 435, 3-isopropyl-N-((aR)-6-(4-oxo-3,4-dihydrophthalazin-1-yl)spiro[3.3]heptan-2-yl)imidazo[1,5-a]pyridine-1-carboxamide] | 5.1 to 15 |
| [H][C@]1(c2n[nH]c(=O)c3ccccc32)C[C@]2(C[C@@H](NC(=O)c3cnc4cc(OCC(F)F)ccn34)C2)C1 (stereo partly drawn) [Example 436, 7-(2,2-difluoroethoxy)-N-((aR)-6-(4-oxo-3,4-dihydrophthalazin-1-yl)spiro[3.3]heptan-2-yl)imidazo[1,2-a]pyridine-3-carboxamide] | 0.2 to 2 |
| [H][C@]1(c2n[nH]c(=O)c3ccccc32)C[C@]2(C[C@@H](NC(=O)c3cnc4cc(OC(C)C)ccn34)C2)C1 (stereo partly drawn) [Example 437, 7-isopropoxy-N-((aR)-6-(4-oxo-3,4-dihydrophthalazin-1-yl)spiro[3.3]heptan-2-yl)imidazo[1,2-a]pyridine-3-carboxamide] | 2.01 to 5 |
| [H][C@]1(c2n[nH]c(=O)c3ccccc32)C[C@]2(C[C@@H](NC(=O)c3cnn4cccc(N5CCOCC5)c34)C2)C1 (stereo partly drawn) [Example 438, 4-morpholino-N-((aR)-6-(4-oxo-3,4-dihydrophthalazin-1-yl)spiro[3.3]heptan-2-yl)pyrazolo[1,5-a]pyridine-3-carboxamide] | 100 to 2100 |
| CCn1cc(-c2ccn3c(C(=O)N[C@H]4CC5(C4)C[C@H](c4n[nH]c(=O)c6ccccc64)C5)cnc3c2)cn1 (stereo partly drawn) [Example 439, 7-(1-ethyl-1H-pyrazol-4-yl)-N-((aR)-6-(4-oxo-3,4-dihydrophthalazin-1-yl)spiro[3.3]heptan-2-yl)imidazo[1,2-a]pyridine-3-carboxamide, TFA salt] | 0.2 to 2 |
| [H][C@]1(c2n[nH]c(=O)c3ccccc32)C[C@]2(C[C@@H](NC(=O)c3cnc4cc(-c5cnn(C)c5)ccn34)C2)C1 (stereo partly drawn) [Example 440, 7-(1-methyl-1H-pyrazol-4-yl)-N-((aR)-6-(4-oxo-3,4-dihydrophthalazin-1-yl)spiro[3.3]heptan-2-yl)imidazo[1,2-a]pyridine-3-carboxamide] | 0.2 to 2 |
| [H][C@]1(c2n[nH]c(=O)c3ccccc32)C[C@]2(C[C@@H](NC(=O)c3cnc4cc(-c5cnn(C(C)C)c5)ccn34)C2)C1 (stereo partly drawn) [Example 441, 7-(1-isopropyl-1H-pyrazol-4-yl)-N-((aR)-6-(4-oxo-3,4-dihydrophthalazin-1-yl)spiro[3.3]heptan-2-yl)imidazo[1,2-a]pyridine-3-carboxamide] | 0.2 to 2 |
| [2H]C([2H])([2H])n1cc(-c2ccn3c(C(=O)N[C@H]4CC5(C4)C[C@H](c4n[nH]c(=O)c6ccccc64)C5)cnc3c2)cn1 (stereo partly drawn) [Example 442, 7-(1-(methyl-d3)-1H-pyrazol-4-yl)-N-((aR)-6-(4-oxo-3,4-dihydrophthalazin-1-yl)spiro[3.3]heptan-2-yl)imidazo[1,2-a]pyridine-3-carboxamide] | 0.2 to 2 |
| [H][C@]1(c2n[nH]c(=O)c3ccccc32)C[C@]2(C[C@@H](NC(=O)c3cnc4cc(-c5cnn(C6CCOCC6)c5)ccn34)C2)C1 (stereo partly drawn) [Example 443] | 0.2 to 2 |
| [H][C@]1(c2n[nH]c(=O)c3ccccc32)C[C@]2(C[C@@H](NC(=O)c3cnc4cc(-c5cn(C(C)C)nc5C(F)(F)F)ccn34)C2)C1 (stereo partly drawn) [Example 444, 7-(1-isopropyl-3-(trifluoromethyl)-1H-pyrazol-4-yl)-N-((aR)-6-(4-oxo-3,4-dihydrophthalazin-1-yl)spiro[3.3]heptan-2-yl)imidazo[1,2-a]pyridine-3-carboxamide] | 2.01 to 5 |
| [H][C@]1(c2n[nH]c(=O)c3ccccc32)C[C@]2(C[C@@H](NC(=O)c3ccc(-c4cnn(CC)c4)c(F)c3)C2)C1 (stereo partly drawn) [Example 445, 4-(1-ethyl-1H-pyrazol-4-yl)-3-fluoro-N-((aR)-6-(4-oxo-3,4-dihydrophthalazin-1-yl)spiro[3.3]heptan-2-yl)benzamide] | 15.1 to 100 |
| [H][C@]1(c2n[nH]c(=O)c3ccccc32)C[C@]2(C[C@@H](NC(=O)c3ccc(-c4cnn(C(C)C)c4)c(F)c3)C2)C1 (stereo partly drawn) [Example 446, 3-fluoro-4-(1-isopropyl-1H-pyrazol-4-yl)-N-((aR)-6-(4-oxo-3,4-dihydrophthalazin-1-yl)spiro[3.3]heptan-2-yl)benzamide] | 2.01 to 5 |
| [H][C@]1(c2n[nH]c(=O)c3ccccc32)C[C@]2(C[C@@H](NC(=O)c3ccc(-c4cnn(C)c4C(F)(F)F)c(F)c3)C2)C1 (stereo partly drawn) [Example 447, 3-fluoro-4-(1-methyl-5-(trifluoromethyl)-1H-pyrazol-4-yl)-N-((aR)-6-(4-oxo-3,4-dihydrophthalazin-1-yl)spiro[3.3]heptan-2-yl)benzamide] | 2.01 to 5 |
| [H][C@]1(c2n[nH]c(=O)c3ccccc32)C[C@]2(C[C@@H](NC(=O)c3ccc(-c4cnn(C5CC5)c4)c(F)c3)C2)C1 (stereo partly drawn) [Example 448, 4-(1-cyclopropyl-1H-pyrazol-4-yl)-3-fluoro-N-((aR)-6-(4-oxo-3,4-dihydrophthalazin-1-yl)spiro[3.3]heptan-2-yl)benzamide] | 2.01 to 5 |
| [H][C@]1(c2n[nH]c(=O)c3ccccc32)C[C@]2(C[C@@H](NC(=O)c3ccc(-c4cnn(C5CCOCC5)c4)c(F)c3)C2)C1 (stereo partly drawn) [Example 449, 3-fluoro-N-((aR)-6-(4-oxo-3,4-dihydrophthalazin-1-yl)spiro[3.3]heptan-2-yl)-4-(1-(tetrahydro-2H-pyran-4-yl)-1H-pyrazol-4-yl)benzamide] | 5.1 to 15 |
| [H][C@]1(c2n[nH]c(=O)c3ccccc32)C[C@]2(C[C@@H](NC(=O)c3ccc(-c4cnn(C)c4)cn3)C2)C1 (stereo partly drawn) [Example 450, 5-(1-methyl-1H-pyrazol-4-yl)-N-((aR)-6-(4-oxo-3,4-dihydrophthalazin-1-yl)spiro[3.3]heptan-2-yl)picolinamide] | 15.1 to 100 |
| [H][C@]1(c2n[nH]c(=O)c3ccccc32)C[C@]2(C[C@@H](NC(=O)c3ccc(-c4cnn(C)c4)cc3)C2)C1 (stereo partly drawn) [Example 451, 4-(1-methyl-1H-pyrazol-4-yl)-N-((aR)-6-(4-oxo-3,4-dihydrophthalazin-1-yl)spiro[3.3]heptan-2-yl)benzamide] | 5.1 to 15 |
| [H][C@]1(c2n[nH]c(=O)c3ccccc32)C[C@]2(C[C@@H](NC(=O)c3cnc4cc(-c5cccnc5)ccn34)C2)C1 (stereo partly drawn) [Example 452, N-((aR)-6-(4-oxo-3,4-dihydrophthalazin-1-yl)spiro[3.3]heptan-2-yl)-7-(pyridin-3-yl)imidazo[1,2-a]pyridine-3-carboxamide] | 0.2 to 2 |
| [H][C@]1(c2n[nH]c(=O)c3ccccc32)C[C@]2(C[C@@H](NC(=O)c3cn4ccc(-c5cccnc5)cc4n3)C2)C1 (stereo partly drawn) [Example 453] | 15.1 to 100 |
| [H][C@]1(c2n[nH]c(=O)c3ccccc32)C[C@]2(C[C@@H](NC(=O)c3cn4ccc(-c5cnc(C)s5)cc4n3)C2)C1 (stereo partly drawn) [Example 454, 7-(2-methylthiazol-5-yl)-N-((aR)-6-(4-oxo-3,4-dihydrophthalazin-1-yl)spiro[3.3]heptan-2-yl)imidazo[1,2-a]pyridine-2-carboxamide] | 15.1 to 100 |
| Cc1ncc(-c2ccn3c(C(=O)NC4CC5(C4)CC(c4n[nH]c(=O)c6ccccc46)C5)cnc3c2)s1 [Example 455, 7-(2-methylthiazol-5-yl)-N-((aR)-6-(4-oxo-3,4-dihydrophthalazin-1-yl)spiro[3.3]heptan-2-yl)imidazo[1,2-a]pyridine-3-carboxamide] | 2.01 to 5 |
| O=C1c2ccccc2CN1C1CC2(CC(c3n[nH]c(=O)c4ccccc34)C2)C1 [Example 457, 4-((aR)-6-(1-oxoisoindolin-2-yl)spiro[3.3]heptan-2-yl)phthalazin-1(2H)-one] | 15.1 to 100 |
| O=C1N[C@@H](Cc2ccccc2)CN1[C@H]1CC2(C[C@H](c3n[nH]c(=O)c4ccccc43)C2)C1 (stereo partly drawn) [Example 458, 4-((aR)-6-((S)-4-benzyl-2-oxoimidazolidin-1-yl)spiro[3.3]heptan-2-yl)phthalazin-1(2H)-one] | 100 to 2100 |
| [H][C@]1(c2n[nH]c(=O)c3ccccc32)C[C@@]2(C[C@H](N3C[C@@H](Cc4ccccc4)NC3=O)C2)C1 (stereo partly drawn) [Example 459, 4-((aR)-6-((R)-4-benzyl-2-oxoimidazolidin-1-yl)spiro[3.3]heptan-2-yl)phthalazin-1(2H)-one] | 100 to 2100 |
| O=c1[nH]nc([C@H]2CC3(C[C@H](Nc4ccccc4[N+](=O)[O-])C3)C2)c2ccccc12 (stereo partly drawn) [Example 460, 4-((aR)-6-((2-nitrophenyl)amino)spiro[3.3]heptan-2-yl)phthalazin-1(2H)-one] | 15.1 to 100 |
| [H][C@]1(c2n[nH]c(=O)c3ccccc32)C[C@]2(C[C@@H](n3c(=O)[nH]c4ccccc43)C2)C1 (stereo partly drawn) [Example 461, 4-((aR)-6-(2-oxo-2,3-dihydro-1H-benzo[d]imidazol-1-yl)spiro[3.3]heptan-2-yl)phthalazin-1(2H)one] | 100 to 2100 |
| O=C(N[C@H]1CC2(C1)C[C@H](c1n[nH]c(=O)c3ccccc31)C2)c1cnn2cccc(C3CC3)c12 (stereo partly drawn) [Example 462, 4-cyclopropyl-N-((aR)-6-(4-oxo-3,4-dihydrophthalazin-1-yl)spiro[3.3]heptan-2-yl)pyrazolo[1,5-a]pyridine-3-carboxamide] | 15.1 to 100 |
| Cn1cc(-c2cnc(C(=O)N[C@H]3CC4(C3)C[C@H](c3n[nH]c(=O)c5ccccc53)C4)c(F)c2)cn1 (stereo partly drawn) [Example 463, 3-fluoro-5-(1-methyl-1H-pyrazol-4-yl)-N-((aR)-6-(4-oxo-3,4-dihydrophthalazin-1-yl)spiro[3.3]heptan-2-yl)picolinamide] | 15.1 to 100 |
| O=C(OC1CC2(C1)CC(c1n[nH]c(=O)c3ccccc13)C2)N1Cc2ccccc2C1 (stereo not drawn) [Example 464, 6-(4-oxo-3,4-dihydrophthalazin-1-yl)spiro[3.3]heptan-2-yl isoindoline-2-carboxylate] | 100 to 2100 |
| CS(=O)(=O)c1ccn2c(C(=O)N[C@H]3CC4(C3)C[C@H](c3n[nH]c(=O)c5ccccc53)C4)cnc2c1 (stereo partly drawn) [Example 465, 7-(methylsulfonyl)-N-((aR)-6-(4-oxo-3,4-dihydrophthalazin-1-yl)spiro[3.3]heptan-2-yl)imidazo[1,2-a]pyridine-3-carboxamide] | 5.1 to 15 |
